Data taken from PubChem BioAssay (NCI).
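Protocol summary: plate cells (96-well), add compound at 5 concentrations, incubate 48 h, interpolate endpoints linearly. Abbreviation: GI50, concentration required for 50% inhibition of growth. TGI denotes the concentration required for complete inhibition of growth.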

Columns and labels:
Test in all cases: NCI anticancer screen, dose series, 48 h
UO-31 renal = system: UO-31 renal
OVCAR-5 ovarian = system: OVCAR-5 ovarian
U251 CNS = system: U251 CNS
COLO 205 colon = system: COLO 205 colon
HOP-92 NSCLC = system: HOP-92 NSCLC
HL-60(TB) leukemia = system: HL-60(TB) leukemia
NCI/ADR-RES ovarian = system: NCI/ADR-RES ovarian
CCRF-CEM leukemia = system: CCRF-CEM leukemia
MDA-MB-231 breast = system: MDA-MB-231 breast
TK-10 renal = system: TK-10 renal
MDA-MB-435 = system: MDA-MB-435
SR leukemia = system: SR leukemia
HS 578T breast = system: HS 578T breast
DU-145 prostate = system: DU-145 prostate
SF-539 CNS = system: SF-539 CNS
PC-3 prostate = system: PC-3 prostate
HCT-116 colon = system: HCT-116 colon
SW-620 colon = system: SW-620 colon
LOX IMVI melanoma = system: LOX IMVI melanoma
KM12 colon = system: KM12 colon
NCI-H460 lung = system: NCI-H460 lung
K-562 leukemia = system: K-562 leukemia
MDA-N = system: MDA-N
SN12C renal = system: SN12C renal
MOLT-4 leukemia = system: MOLT-4 leukemia
RXF 393 renal = system: RXF 393 renal
HCT-15 colon = system: HCT-15 colon
IGROV1 ovarian = system: IGROV1 ovarian
HT29 colon = system: HT29 colon
NCI-H23 lung = system: NCI-H23 lung
NCI-H226 lung = system: NCI-H226 lung
OVCAR-8 ovarian = system: OVCAR-8 ovarian
M14 melanoma = system: M14 melanoma
OVCAR-4 ovarian = system: OVCAR-4 ovarian
UACC-257 melanoma = system: UACC-257 melanoma
MCF7 breast = system: MCF7 breast
T-47D breast = system: T-47D breast
EKVX NSCLC = system: EKVX NSCLC
SK-MEL-5 melanoma = system: SK-MEL-5 melanoma
RPMI-8226 leukemia = system: RPMI-8226 leukemia
CAKI-1 renal = system: CAKI-1 renal
SNB-19 CNS = system: SNB-19 CNS
A549 NSCLC = system: A549 NSCLC
ACHN renal = system: ACHN renal
OVCAR-3 ovarian = system: OVCAR-3 ovarian
SK-MEL-28 melanoma = system: SK-MEL-28 melanoma
SF-268 CNS = system: SF-268 CNS
SK-OV-3 ovarian = system: SK-OV-3 ovarian
SNB-75 CNS = system: SNB-75 CNS
A498 renal = system: A498 renal
MALME-3M melanoma = system: MALME-3M melanoma
HCC-2998 colon = system: HCC-2998 colon
BT-549 breast = system: BT-549 breast
SK-MEL-2 melanoma = system: SK-MEL-2 melanoma
UACC-62 melanoma = system: UACC-62 melanoma
NCI-H522 lung = system: NCI-H522 lung
786-0 renal = system: 786-0 renal
SF-295 CNS = system: SF-295 CNS
HOP-62 NSCLC = system: HOP-62 NSCLC

Compound `O=S(=O)(Nc1nccs1)c1ccc(Nc2nc(-c3cccs3)nc3ccc(I)cc23)cc1` has a TGI (UO-31 renal) of 65.1 µM, a TGI (OVCAR-5 ovarian) of 86.3 µM and a TGI (U251 CNS) of 54.7 µM. For the same compound, the TGI (COLO 205 colon) was 38.2 µM, the TGI (HOP-92 NSCLC) was 40 µM and the TGI (HL-60(TB) leukemia) was > 89.3 µM. The TGI (NCI/ADR-RES ovarian) was > 100 µM, the TGI (CCRF-CEM leukemia) was > 19.9 µM and the GI50 (MDA-MB-231 breast) was > 37.8 µM. The TGI (MDA-MB-231 breast) was > 57.2 µM, the TGI (TK-10 renal) was 44.5 µM and the TGI (MDA-MB-435) was 44 µM. For the same compound, the TGI (SR leukemia) was 68.4 µM, the GI50 (HS 578T breast) was 14 µM and the TGI (HS 578T breast) was > 70 µM. For the same compound, the TGI (DU-145 prostate) was 46.5 µM, the TGI (SF-539 CNS) was 68.3 µM and the TGI (PC-3 prostate) was 32.7 µM. For the same compound, the TGI (HCT-116 colon) was 36.8 µM, the TGI (SW-620 colon) was > 59.6 µM and the TGI (LOX IMVI melanoma) was 51.8 µM. The TGI (KM12 colon) was 44.1 µM, the TGI (NCI-H460 lung) was > 81.6 µM and the TGI (K-562 leukemia) was > 55.8 µM. The TGI (MDA-N) was > 100 µM, the TGI (SN12C renal) was > 74.6 µM and the TGI (MOLT-4 leukemia) was > 62.4 µM. For the same compound, the TGI (RXF 393 renal) was > 92.2 µM, the TGI (HCT-15 colon) was > 80.9 µM and the TGI (IGROV1 ovarian) was 58.7 µM. For the same compound, the TGI (HT29 colon) was 51.7 µM, the TGI (NCI-H23 lung) was > 75.8 µM and the TGI (NCI-H226 lung) was 74.8 µM. For the same compound, the TGI (OVCAR-8 ovarian) was > 69.4 µM, the TGI (M14 melanoma) was 58.5 µM and the TGI (OVCAR-4 ovarian) was 63.2 µM. For the same compound, the TGI (UACC-257 melanoma) was > 65.7 µM, the TGI (MCF7 breast) was > 100 µM and the TGI (T-47D breast) was 56.6 µM. For the same compound, the TGI (EKVX NSCLC) was 48.1 µM, the TGI (SK-MEL-5 melanoma) was 28.4 µM and the TGI (RPMI-8226 leukemia) was 20.1 µM. For the same compound, the TGI (CAKI-1 renal) was 48.7 µM, the TGI (SNB-19 CNS) was > 93 µM and the TGI (A549 NSCLC) was 71.2 µM. For the same compound, the TGI (ACHN renal) was > 75.2 µM, the TGI (OVCAR-3 ovarian) was 39.9 µM and the TGI (SK-MEL-28 melanoma) was 56 µM. For the same compound, the TGI (SF-268 CNS) was > 100 µM, the TGI (SK-OV-3 ovarian) was 67 µM and the TGI (SNB-75 CNS) was 74 µM. For the same compound, the GI50 (A498 renal) was 17.4 µM, the TGI (A498 renal) was > 62.3 µM and the TGI (MALME-3M melanoma) was 44.2 µM. The TGI (HCC-2998 colon) was 51.5 µM, the TGI (BT-549 breast) was 54 µM and the TGI (SK-MEL-2 melanoma) was > 77.9 µM. For the same compound, the TGI (UACC-62 melanoma) was 52.6 µM, the TGI (NCI-H522 lung) was > 73.1 µM and the TGI (786-0 renal) was 89.4 µM. For the same compound, the TGI (SF-295 CNS) was 43.1 µM and the TGI (HOP-62 NSCLC) was 51.1 µM.
`CN1CCC(CN2c3ccccc3Sc3ccccc32)C1` (stereo unspecified) was tested, and the TGI (UO-31 renal) was 30 µM, the TGI (OVCAR-5 ovarian) was 31.8 µM and the TGI (U251 CNS) was 26.6 µM. The TGI (COLO 205 colon) was 25.2 µM, the TGI (HOP-92 NSCLC) was 29.5 µM and the TGI (HL-60(TB) leukemia) was 29.7 µM. For the same compound, the TGI (NCI/ADR-RES ovarian) was 29.8 µM, the TGI (CCRF-CEM leukemia) was 31.6 µM and the TGI (MDA-MB-231 breast) was 27.4 µM. For the same compound, the TGI (TK-10 renal) was 31.4 µM, the TGI (MDA-MB-435) was 23.7 µM and the TGI (SR leukemia) was 29.6 µM. It also gave a TGI (HS 578T breast) of 36.7 µM, a TGI (DU-145 prostate) of 38.1 µM and a TGI (SF-539 CNS) of 31.9 µM. The TGI (PC-3 prostate) was 25.4 µM, the TGI (HCT-116 colon) was 26.9 µM and the TGI (SW-620 colon) was 35.7 µM. It also gave a TGI (LOX IMVI melanoma) of 30 µM, a TGI (KM12 colon) of 34.5 µM and a TGI (NCI-H460 lung) of 28.2 µM. It also gave a TGI (K-562 leukemia) of 27.4 µM, a TGI (MDA-N) of 27.7 µM and a TGI (SN12C renal) of 29.1 µM. The TGI (MOLT-4 leukemia) was 38.7 µM, the TGI (RXF 393 renal) was 17.4 µM and the TGI (HCT-15 colon) was 31.4 µM. It also gave a TGI (IGROV1 ovarian) of 31.6 µM, a TGI (HT29 colon) of 23.8 µM and a TGI (NCI-H23 lung) of 36 µM. The TGI (NCI-H226 lung) was 35 µM, the TGI (OVCAR-8 ovarian) was 31.9 µM and the TGI (M14 melanoma) was 23.5 µM. The TGI (OVCAR-4 ovarian) was 28.1 µM, the TGI (UACC-257 melanoma) was 24.4 µM and the TGI (MCF7 breast) was 35 µM. It also gave a TGI (T-47D breast) of 34.2 µM, a TGI (EKVX NSCLC) of 31.5 µM and a TGI (SK-MEL-5 melanoma) of 27.7 µM. It also gave a TGI (RPMI-8226 leukemia) of 33.8 µM, a TGI (CAKI-1 renal) of 28.8 µM and a TGI (SNB-19 CNS) of 33.1 µM. The TGI (A549 NSCLC) was 32.2 µM, the TGI (ACHN renal) was 27.9 µM and the TGI (OVCAR-3 ovarian) was 28.6 µM. The TGI (SK-MEL-28 melanoma) was 19.4 µM, the TGI (SF-268 CNS) was 29.5 µM and the TGI (SK-OV-3 ovarian) was 31.6 µM. For the same compound, the TGI (SNB-75 CNS) was 11.1 µM, the TGI (A498 renal) was 26.2 µM and the TGI (MALME-3M melanoma) was 31.7 µM. The TGI (HCC-2998 colon) was 24.7 µM, the TGI (BT-549 breast) was 30.8 µM and the TGI (SK-MEL-2 melanoma) was 30.6 µM. For the same compound, the TGI (UACC-62 melanoma) was 25.9 µM, the TGI (NCI-H522 lung) was 32 µM and the TGI (786-0 renal) was 27.9 µM. It also gave a TGI (SF-295 CNS) of 29.8 µM and a TGI (HOP-62 NSCLC) of 28.5 µM.
